Reference: patent US5622967A, “Quinolone carboxamide Calpain inhibitors” (Sterling Winthrop, Inc., priority 1995, dated 1997)

Molecular target: T1, human calpain I (Homo sapiens, UniProt P07384)
T1 construct: The isolation of calpain from human erythrocytes was similar to that described by Wang et al. (1988); from tissue; host or cells: human red blood cells (packed red cells, American Red Cross); partially purified on DEAE-Sephacel and phenyl-Sepharose CL-4B
T1 sequence (P07384 1-714): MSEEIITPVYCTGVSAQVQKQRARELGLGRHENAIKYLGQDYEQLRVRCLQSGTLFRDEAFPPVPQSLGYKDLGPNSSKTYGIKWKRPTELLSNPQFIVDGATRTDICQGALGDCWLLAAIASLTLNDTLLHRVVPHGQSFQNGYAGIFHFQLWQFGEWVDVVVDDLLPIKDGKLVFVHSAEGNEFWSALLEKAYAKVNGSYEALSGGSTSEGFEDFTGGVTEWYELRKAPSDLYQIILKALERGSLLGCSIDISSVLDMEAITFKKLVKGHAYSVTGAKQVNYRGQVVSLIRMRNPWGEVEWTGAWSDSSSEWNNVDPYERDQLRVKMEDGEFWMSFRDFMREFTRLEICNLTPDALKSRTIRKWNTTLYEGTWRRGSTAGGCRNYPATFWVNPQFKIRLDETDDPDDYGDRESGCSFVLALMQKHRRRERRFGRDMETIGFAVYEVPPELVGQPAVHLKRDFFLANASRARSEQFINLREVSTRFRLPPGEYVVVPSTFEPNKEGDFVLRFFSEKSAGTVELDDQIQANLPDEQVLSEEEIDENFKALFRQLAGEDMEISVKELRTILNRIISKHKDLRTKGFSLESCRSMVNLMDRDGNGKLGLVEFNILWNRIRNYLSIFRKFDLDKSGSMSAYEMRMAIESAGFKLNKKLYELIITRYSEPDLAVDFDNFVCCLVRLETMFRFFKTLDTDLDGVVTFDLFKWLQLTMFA
T1 sequence (P04632 1-268 partner): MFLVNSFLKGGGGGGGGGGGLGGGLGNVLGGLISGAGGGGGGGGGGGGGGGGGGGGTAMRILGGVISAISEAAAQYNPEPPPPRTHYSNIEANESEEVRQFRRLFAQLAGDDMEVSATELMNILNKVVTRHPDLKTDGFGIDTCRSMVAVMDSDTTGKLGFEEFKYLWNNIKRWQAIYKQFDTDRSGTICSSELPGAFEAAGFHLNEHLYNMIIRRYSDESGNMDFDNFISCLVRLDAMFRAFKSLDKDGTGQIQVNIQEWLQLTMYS
Test: Calpain I Inhibition Assay (3H-acetyl casein degradation)
Format: biochemical
Details: human erythrocyte calpain I; 3H-acetyl Casein substrate; 25° C., 2 hours incubation; read-out: IC50 against human calpain I
Protocol: Compounds of the present invention were tested for calpain I inhibition activity using the following assay method.
Calpain I InhibitionAssay
Isolation of Human erythrocyte Calpain I
Human red blood cells were obtained from the Northeastern New York Chapter of the American Red Cross. The isolation of calpain from human erythrocytes was similar to that described by Wang et al. (1988). One unit of in-dated packed red cells was diluted with an equal volume of diluting/wash solution and centrifuged. The supernatant was removed and the procedure was repeated. The washed cells were pooled, lysed with 700 mL of lysing solution and centrifuged to remove cell debris. The membrane-free hemolysate was added to 500 mL DEAE-sephacel and the slurry was stirred gently at 4° C. for 1 hour.
Batch elution was done using DEAE-sephacel wash solution to remove a large amount of unwanted protein, most of which was hemoglobin. The slurry was poured into a column connected in tandem to a phenyl-sepharose CL-4B column. Material eluted from the DEAE-sephacel was applied directly to the phenyl-sepharose CL-4B. The phenyl-sepharose CL-4B column was washed first with 75 mM NaCl and then with no salt. Calpain begins to disassociate from the […] with the 75 mM NaCl but the majority should adhere to the column until the salt is removed. Fractions were collected (20 mL), assayed for caseinolytic activity with and without calpastatin and pooled accordingly. The pooled fractions were concentrated using an Amicon stirred cell equipped with a YK-10 membrane. Calpain was stored at 4° C. with 10 mM EDTA and 5 mM 2-mercaptoethanol and is stable for at least 6 months.
The tritated assay is a modification of that described by Gopalakrishna, R. and Barsky, S.H., Anal. Biochem., 148, 413,1985. All reagents, compound 25 ul, HEPES buffer 25 ul, CaCl2 50 ul, enzyme 50 ul, and ^3 H-acetyl Casein, were combined in 1 mL polystyrene titer plates. The plates were preincubated at 25° C. for 5 min with gentle shaking prior to the addition of substrate. The incubation was continued for an additional 2 hours and was terminated with the addition of 0.5 mL ice cold 5% TCA. Unlabled casein was added, samples were centrifuged and 0.5 mL of the supernatant was counted in 5 mL of Ready Protein liquid scintillation cocktail for 2 min. This assay measures ^3 H-acetyl Casein degradation as an endpoint for calpain activity.

| IC50 | Compound |
| --- | --- |
| 2000 nM | NC(=O)c1cn(-c2ccc(O)cc2)c2cc(-c3ccncc3)ccc2c1=O [Example 1, 1,4-Dihydro-1-(4-hydroxyphenyl)-4-oxo-7-(4-pyridinyl)=3-quinolinecarboxamide] |
| 7000 nM | NC(=O)c1cn(-c2ccc(O)c(O)c2)c2cc(-c3ccncc3)ccc2c1=O [Example 2, 1,4,Dihydro-1-(3.4-dihydroxyphenyl)-4-oxo-7-(4-pyridinyl),3-quinolinecarboxamide] |
| 2000 nM | NC(=O)c1cn(-c2ccc(O)c(Cl)c2)c2cc(-c3ccncc3)ccc2c1=O [Example 3, 1,4-Dihydro-1-(3-chloro-4-hydroxyphenyl)-4-oxo-7-(4-pyridinyl)-3-quinolinecarboxamide] |
| 7400 nM | NC(=O)c1cn(-c2ccc(O)cc2F)c2cc(-c3ccncc3)ccc2c1=O [Example 4, 1,4-Dihydro-1-(2-fluoro-4-hydroxyphenyl)-4-oxo-7-(4-pyridinyl)-3-quinolinecarboxamide] |
| 5000 nM | NC(=O)c1cn(-c2ccc(O)c(F)c2)c2cc(-c3ccncc3)ccc2c1=O [Example 5, 1,4-Dihydro-1-(3-fluoro-4-hydroxyphenyl)-4-oxo-7-(4-pyridinyl)-3-quinolinecarboxamide] |
| 510 nM | Cc1cc(O)ccc1-n1cc(C(N)=O)c(=O)c2ccc(-c3ccncc3)cc21 [Example 6, 1,4-Dihydro-1-(2-methyl-4-hydroxyphenyl)-4-oxo-7-(4-pyridinyl)-3-quinolinecarboxamide] |
| 16000 nM | NC(=O)c1cn(-c2ccc(O)cc2C(F)(F)F)c2cc(-c3ccncc3)ccc2c1=O [Example 7, 1,4-Dihydro-1-(2-trifluoromethyl-4-hydroxyphenyl)-4-oxo-7-(4-pyridinyl)-3-quinolinecarboxamide] |
| 600 nM | NC(=O)c1cn(-c2ccc(O)cc2Cl)c2cc(-c3ccncc3)ccc2c1=O [Example 8, 1,4-Dihydro-1-(2-chloro-4-hydroxyphenyl)-4-oxo-7-(4-pyridinyl)-3-quinolinecarboxamide] |
| 12000 nM | NC(=O)c1cn(-c2ccc(O)cc2Cl)c2cc(-c3cccnc3)ccc2c1=O [Example 9, 1,4,Dihydro-1-(2-chloro-4-hydroxyphenyl)-4-oxo-7-(3-pyridinyl)-3-quinolinecarboxamide] |
| 1700 nM | NC(=O)c1cn(-c2ccc(O)cc2Cl)c2cc(-c3ccoc3)ccc2c1=O [Example 10, 1,4-Dihydro-1-(2-chloro-4-hydroxyphenyl)-4-oxo-7-(3-furyl)-3-quinolinecarboxamide] |
| 1700 nM | NC(=O)c1cn(-c2ccc(O)cc2Cl)c2cc(-c3ccncc3Cl)ccc2c1=O [Example 11] |
| 1700 nM | NC(=O)c1cn(-c2ccc(O)cc2Cl)c2cc(-c3ccnnc3)ccc2c1=O [Example 12, 1,4-Dihydro-1-(2-chloro-4-hydroxyphenyl)-4-oxo-7-(4-pyridazinyl)-3-quinolinecarboxamide] |
| 570 nM | NC(=O)c1cn(-c2ccc(O)cc2Cl)c2cc(-c3cc[nH]n3)ccc2c1=O [Example 13, 1,4-Dihydro-1-(2-chloro-4-hydroxyphenyl)-4-oxo-7-(3-pyrazolyl)-3-quinolinecarboxamide] |
